Measurements: paper PMC13210772, “Dual FLT3/MAPK14 Proteolysis-Targeting Chimera (PROTAC) Induces Potent Acute Myeloid Leukemia Cell Death” (Pharmaceuticals, 2026)

How the values were obtained:
MOLM-13 = system: MOLM-13; design: method as in PMID 30427680, PMID 34959180, PMID 34694800, PMID 36332882, PMID 38655686; conditions: reported FLT3 PROTACs, Figure 1; cited from earlier work
CDK1-CCNB1 = CDK1-CCNB1 (Homo sapiens, UniProt P06493); test: NanoBRET CELLinib128; conditions: read-out: Tracer bound
Sequence of CDK1-CCNB1 (P06493 whole entry): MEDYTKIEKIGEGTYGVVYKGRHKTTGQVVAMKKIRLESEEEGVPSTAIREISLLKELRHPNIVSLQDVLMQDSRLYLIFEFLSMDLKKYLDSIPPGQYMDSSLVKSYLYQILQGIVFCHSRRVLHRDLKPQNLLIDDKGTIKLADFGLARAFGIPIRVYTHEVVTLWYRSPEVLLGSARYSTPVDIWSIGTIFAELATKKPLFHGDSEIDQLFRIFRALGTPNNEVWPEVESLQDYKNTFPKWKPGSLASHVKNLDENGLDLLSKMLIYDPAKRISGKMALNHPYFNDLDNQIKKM
Sequence of CDK1-CCNB1 (P14635 whole entry partner): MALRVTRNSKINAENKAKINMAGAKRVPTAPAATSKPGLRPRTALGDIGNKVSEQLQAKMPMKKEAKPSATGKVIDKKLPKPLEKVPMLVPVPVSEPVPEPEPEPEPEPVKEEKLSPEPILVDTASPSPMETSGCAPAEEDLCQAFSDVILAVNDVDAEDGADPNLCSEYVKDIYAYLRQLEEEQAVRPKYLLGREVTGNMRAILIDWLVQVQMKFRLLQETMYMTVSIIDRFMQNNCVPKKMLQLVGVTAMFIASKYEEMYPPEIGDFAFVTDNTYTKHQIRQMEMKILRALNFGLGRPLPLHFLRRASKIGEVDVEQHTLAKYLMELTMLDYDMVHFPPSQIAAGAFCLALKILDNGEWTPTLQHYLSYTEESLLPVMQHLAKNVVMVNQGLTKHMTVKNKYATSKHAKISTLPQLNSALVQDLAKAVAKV

ULK1 = molecular target: T1, ULK1 (Homo sapiens, UniProt O75385); test: NanoBRET CELLinib128; format: binding; conditions: 1 µM; 100% no effect, 0% complete tracer displacement
T1 construct: Full-length kinase ORF (Promega, Madison, WI, USA) cloned in frame with a NanoLuc-vector; host or cells: HEK293T
T1 sequence (O75385 whole entry): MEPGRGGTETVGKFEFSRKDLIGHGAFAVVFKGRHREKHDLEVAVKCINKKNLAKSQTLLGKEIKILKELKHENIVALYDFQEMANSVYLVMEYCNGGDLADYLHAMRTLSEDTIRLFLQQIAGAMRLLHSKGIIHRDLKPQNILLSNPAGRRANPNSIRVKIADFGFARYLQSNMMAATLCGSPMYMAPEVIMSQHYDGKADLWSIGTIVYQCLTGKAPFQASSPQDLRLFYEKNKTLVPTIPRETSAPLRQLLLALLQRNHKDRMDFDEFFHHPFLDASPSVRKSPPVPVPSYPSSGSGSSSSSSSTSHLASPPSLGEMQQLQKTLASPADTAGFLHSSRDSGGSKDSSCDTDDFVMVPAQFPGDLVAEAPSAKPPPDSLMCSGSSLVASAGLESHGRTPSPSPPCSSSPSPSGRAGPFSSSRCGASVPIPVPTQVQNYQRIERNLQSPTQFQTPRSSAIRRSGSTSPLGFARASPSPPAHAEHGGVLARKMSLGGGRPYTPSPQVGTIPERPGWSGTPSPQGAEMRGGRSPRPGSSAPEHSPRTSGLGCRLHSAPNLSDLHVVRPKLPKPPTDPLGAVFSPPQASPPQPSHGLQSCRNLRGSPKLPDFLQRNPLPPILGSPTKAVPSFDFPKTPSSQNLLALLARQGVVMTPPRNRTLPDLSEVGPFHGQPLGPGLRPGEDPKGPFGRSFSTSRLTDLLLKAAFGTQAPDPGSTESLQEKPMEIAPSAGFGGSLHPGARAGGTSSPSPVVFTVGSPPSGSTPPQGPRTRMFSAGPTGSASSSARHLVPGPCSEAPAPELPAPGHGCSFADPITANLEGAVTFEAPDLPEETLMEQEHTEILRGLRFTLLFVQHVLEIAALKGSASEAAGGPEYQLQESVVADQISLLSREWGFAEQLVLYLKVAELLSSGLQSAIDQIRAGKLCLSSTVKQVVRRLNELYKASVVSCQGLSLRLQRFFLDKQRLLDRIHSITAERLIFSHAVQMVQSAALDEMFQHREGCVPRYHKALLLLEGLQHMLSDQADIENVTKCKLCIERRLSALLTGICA
Method in brief: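 Read-out is tracer displacement measured by BRET (450 nm donor, 610 nm acceptor) after NanoGlo substrate plus extracellular NanoLuc inhibitor. Cells were HEK293T expressing full-length NanoLuc-tagged kinases for 20 h, exposed to 1 μM compound and tracer for 2 h at 37 °C.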

FLT3-ITD = molecular target: T2, FLT3-ITD (Homo sapiens, UniProt P36888, INS600HVDFREYEYD); test: Phosphorylation of FLT3-ITD, immunoblot in MV4-11 cells; format: cell-based; design: We treated MV4-11 cells with the synthesized degraders of FLT3; endogenous in cells; host or cells: MV4-11
T2 sequence (P36888 with tags, fused parts or gaps INS600HVDFREYEYD): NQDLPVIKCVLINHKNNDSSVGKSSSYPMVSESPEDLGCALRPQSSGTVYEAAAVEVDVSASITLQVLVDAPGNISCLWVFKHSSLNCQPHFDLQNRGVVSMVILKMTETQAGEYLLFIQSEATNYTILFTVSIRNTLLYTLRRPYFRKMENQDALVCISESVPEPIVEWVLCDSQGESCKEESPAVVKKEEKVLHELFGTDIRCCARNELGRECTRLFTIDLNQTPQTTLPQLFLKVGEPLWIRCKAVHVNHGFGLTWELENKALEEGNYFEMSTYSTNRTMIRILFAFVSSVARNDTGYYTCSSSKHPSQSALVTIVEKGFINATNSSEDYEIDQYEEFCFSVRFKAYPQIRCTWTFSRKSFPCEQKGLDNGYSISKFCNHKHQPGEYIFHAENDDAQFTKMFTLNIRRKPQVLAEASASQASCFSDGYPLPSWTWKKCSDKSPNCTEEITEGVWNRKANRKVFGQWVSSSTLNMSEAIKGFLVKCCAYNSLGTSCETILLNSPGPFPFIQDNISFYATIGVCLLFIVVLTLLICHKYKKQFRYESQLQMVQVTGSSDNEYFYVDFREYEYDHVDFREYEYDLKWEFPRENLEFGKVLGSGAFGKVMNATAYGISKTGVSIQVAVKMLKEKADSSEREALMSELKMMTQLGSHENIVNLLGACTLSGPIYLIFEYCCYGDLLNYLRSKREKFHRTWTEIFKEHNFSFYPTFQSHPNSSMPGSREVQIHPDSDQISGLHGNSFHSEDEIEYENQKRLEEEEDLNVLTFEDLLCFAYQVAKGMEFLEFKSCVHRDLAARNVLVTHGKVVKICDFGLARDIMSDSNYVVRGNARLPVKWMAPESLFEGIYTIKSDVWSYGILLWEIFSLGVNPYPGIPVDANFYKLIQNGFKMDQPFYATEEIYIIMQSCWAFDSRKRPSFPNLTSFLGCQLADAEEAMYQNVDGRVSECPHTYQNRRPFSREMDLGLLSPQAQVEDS
Excerpt: We aimed to delineate if the FLT3 inhibitor part of MA191 acts as a MAPK14 inhibitor in MV4-11 cells. We used the phosphorylation of FLT3-ITD and the phosphorylation of MAPK14 as markers for their activation. […] This finding is consistent with the detection of MAPK14 in the kinase selectivity profiling approach (Figure 3; MAPK14 is termed p38α therein).
Figure 7 Targeting MAPK14 augments anti-leukemic effects of an inhibition of FLT3-ITD. (a) The graphs show the mRNA levels of MAPK14 in leukemia cells and normal blood cells. […] All immunoblots show data from at least two independent repetitions. (c) Model for how inhibition of various signaling pathways affects AML cells (red, cytoplasm, blue, nucleus).

MAPK14 [1] = molecular target: T3, MAPK14 (Homo sapiens, UniProt Q16539); test: Phosphorylation of MAPK14, immunoblot in MV4-11 cells; format: cell-based; design: endogenous in cells; host or cells: K562, RS4-11, MV4-11, MOLM-13 (A17); MV4-11 (A20)
T3 sequence (Q16539 2-360 limits assumed): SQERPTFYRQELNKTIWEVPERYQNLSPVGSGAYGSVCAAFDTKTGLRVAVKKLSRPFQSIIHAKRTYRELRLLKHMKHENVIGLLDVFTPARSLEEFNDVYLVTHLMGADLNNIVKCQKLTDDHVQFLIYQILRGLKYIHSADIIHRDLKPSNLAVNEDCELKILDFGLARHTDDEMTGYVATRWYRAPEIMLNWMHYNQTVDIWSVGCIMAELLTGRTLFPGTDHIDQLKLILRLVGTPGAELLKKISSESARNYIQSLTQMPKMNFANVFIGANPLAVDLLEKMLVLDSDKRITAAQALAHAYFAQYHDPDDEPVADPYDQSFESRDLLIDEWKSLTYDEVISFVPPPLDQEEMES

MAPK14 [2] = molecular target: T3, MAPK14; test: MAPK14 degradation, immunoblot in leukemia cells; format: cell-based; design: endogenous in cells; host or cells: K562, RS4-11, MV4-11, MOLM-13 (A17); MV4-11 (A20); conditions: K562, RS4-11, MV4-11 and MOLM-13 cells; 50 nM MA191, 24 h

remaining activity at 1 µM (CDK1-CCNB1) [%] | Tracer bound (ULK1) [%] | phosphorylated MAPK14 (p-MAPK14) (MAPK14 [1]) | MAPK14 protein level, immunoblot (MAPK14 [2]) | Structure (SMILES) | IC50 (MOLM-13) [nM] | phosphorylation of FLT3-ITD (FLT3-ITD)
 |  |  |  | Cc1ncsc1-c1ccc([C@H](C)NC(=O)[C@@H]2C[C@@H](O)CN2C(=O)[C@@H](NC(=O)CCOCCOCCOCCNC(=O)c2cc(Oc3ccc(NC(=O)Nc4cc(C(C)(C)C)on4)cc3)ccn2)C(C)(C)C)cc1 [MA49, reference compound] | 4.8 ± 3.7 | 
98 | 117.4 |  |  | CNC(=O)c1cc(Oc2ccc(NC(=O)Nc3cc(C(C)(C)C)on3)cc2)ccn1 [MA68, reference compound] |  | 
81.9 |  | loss of p-MAPK14 together with MAPK14 | depleted MAPK14 | Cc1ncsc1-c1ccc([C@H](C)NC(=O)[C@@H]2C[C@@H](O)CN2C(=O)[C@@H](NC(=O)[C@H]2CC[C@H](C(=O)N3CCN(CCNC(=O)c4cc(Oc5ccc(NC(=O)Nc6cc(C(C)(C)C)on6)cc5)ccn4)CC3)CC2)C(C)(C)C)cc1 [MA191, 4-(4-(3-(5-(tert-Butyl)isoxazol-3-yl)ureido)phenoxy)-N-(2-(4-(trans-4-(((S)-1-((2S,4R)-4-hydroxy-2-(((S)-1-(4-(4-methylthiazol-5-yl)phenyl)ethyl)carbamoyl)pyrrolidin-1-yl)-3,3-dimethyl-1-oxobutan-2-yl)carbamoyl)cyclohexanecarbonyl)piperazin-1-yl)ethyl)picolinamide] |  | inhibited the phosphorylation of FLT3-ITD
